Consider 21 compounds from patent publication US20250367173A1, “ECTONUCLEOTIDE PYROPHOSPHATASE-PHOSPHODIESTERASE-1 INHIBITORS AND PHARMACEUTICAL COMPOSITIONS COMPRISING THE SAME” (LigaChem Biosciences Inc., priority 2022, published 2025).

Where only a bound is given, the exact number is not on record here.

For experiment [1], the target named is T1, ENPP-1 (Homo sapiens, UniProt P22413).
T1 construct: purchased Biovendor RD172124100
T1 sequence (P22413 1-925): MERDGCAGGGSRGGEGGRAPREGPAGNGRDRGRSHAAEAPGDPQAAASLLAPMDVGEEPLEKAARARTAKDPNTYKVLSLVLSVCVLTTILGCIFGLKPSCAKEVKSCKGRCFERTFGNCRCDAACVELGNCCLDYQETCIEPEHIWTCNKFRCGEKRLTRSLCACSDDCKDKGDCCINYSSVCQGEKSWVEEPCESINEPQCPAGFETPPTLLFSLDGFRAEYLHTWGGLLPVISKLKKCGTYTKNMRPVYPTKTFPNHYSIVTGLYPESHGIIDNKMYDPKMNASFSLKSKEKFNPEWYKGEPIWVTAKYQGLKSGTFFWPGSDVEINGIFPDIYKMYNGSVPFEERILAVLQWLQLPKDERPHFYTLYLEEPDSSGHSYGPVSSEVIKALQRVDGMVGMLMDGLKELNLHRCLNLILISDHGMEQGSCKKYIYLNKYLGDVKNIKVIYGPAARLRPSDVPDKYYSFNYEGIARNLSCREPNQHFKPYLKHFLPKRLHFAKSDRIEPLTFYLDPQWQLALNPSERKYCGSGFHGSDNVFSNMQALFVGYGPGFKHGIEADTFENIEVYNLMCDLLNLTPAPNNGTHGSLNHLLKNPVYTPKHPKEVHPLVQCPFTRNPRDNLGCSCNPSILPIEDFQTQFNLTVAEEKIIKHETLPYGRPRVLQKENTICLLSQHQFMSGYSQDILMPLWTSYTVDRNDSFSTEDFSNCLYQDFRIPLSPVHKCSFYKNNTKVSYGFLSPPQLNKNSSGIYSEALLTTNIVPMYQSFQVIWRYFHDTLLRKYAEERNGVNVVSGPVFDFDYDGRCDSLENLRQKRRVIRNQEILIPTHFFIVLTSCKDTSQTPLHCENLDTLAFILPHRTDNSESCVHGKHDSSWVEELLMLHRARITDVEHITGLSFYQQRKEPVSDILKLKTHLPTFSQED
Description: ENPP-1 enzyme assay with cGAMP substrate. The experiment is classed as biochemical. The conditions noted are these: 200 pM ENPP-1, 10 μM substrate 2′3′-cGAMP, pH 7.4, 37° C., 30 minutes, Transcreener AMP2/GMP2 kit; average IC50. How it is done:
2′3′-cGAMP is a natural substrate specifically hydrolyzed by ENPP-1, and produces 5′-adenosine monophosphate (AMP) and 5′-guanosine monophosphate (GMP). AMP and GMP produced from the reaction are monitored for ENPP-1 enzyme activity through an AMP^2/GMP^2 ENPP-1 Assay kit (Bellbrook Labs, catalog number 3015).
First, the reaction mixture contains 25 mM Tris-HCl (pH 7.4), 5 mM MgCl2, 0.01% Brij-35, and 1% DMSO. Serially diluted ENPP-1 inhibitors (test compound concentrations ranging from 10 μM to 0.5 nM) are reacted with 200 pM ENPP-1 (Biovendor, catalog number RD172124100) and 10 μM substrate 2′3′-cGAMP at 37° C. for 30 minutes. All assays include a DMSO control without ENPP-1 inhibitor that provides maximal AMP and GMP production. After 30 minutes of this reaction, AMP and GMP production is detected as a measure of ENPP-1 enzymatic activity using the Transcreener® AMP^2/GMP^2 ENPP-1 Assay kit. The detection reagent is a reagent containing 16 nM AMP^2/GMP^2 Antibody-Tb, 25 mM Tris-HCl and 60.1 nM AMP/GMP HiLyte647 Tracer, which is added by 5 μl, mixed well, and incubated at 25° C. for 2 hours.
The […] signal is measured using a SPARK Cyto plate reader (Tecan). Inhibition (%) is calculated using the following formula: (Max 615:665 ratio-615:665 ratio)/Max 615:665 ratio×100%. % residual ENPP-1 enzyme activity versus IC50 values for ENPP-1 inhibitor concentrations were determined by fitting inhibition curves using the 4-parameter method of GraphPad Prism® software [GraphPad version 9.3.1 for Windows, GraphPad Software, La Jolla California USA, www.graphpad.com].

In experiment [2] the target is T1, ENPP-1. Description: ENPP-1 enzyme assay with pNP-TMP substrate. The experiment is classed as biochemical. The conditions noted are these: 12.5 ng ENPP-1, 720 μM substrate pNP-TMP, pH 9.0, 37° C., 60 minutes, absorbance 405 nm; average IC50. How it is done:
In order to measure the ENPP-1 inhibitory activity of the compounds according to the present disclosure, the following tests were performed.
ENPP-1 hydrolyzes a variety of substrates, including phosphodiester bonds of nucleotides and nucleotide sugars and pyrophosphate bonds of nucleotides and nucleotide sugars. p-Nitrophenyl 5′-thymidine monophosphate (p-Nph-5′-TMP) is an artificial substrate for 5′-adenosine monophosphate (AMP), which is hydrolyzed by the human recombinant ENPP-1 enzyme. In the above reaction, ENPP-1 enzymatic activity is monitored through the formation of yellow p-nitrophenolate, which absorbs at 405 nm.
First, the reaction mixture contains 100 mM Tris-HCl (pH 9.0), 150 mM NaCl, […], and 1% DMSO. Serially diluted ENPP-1 inhibitors (test compound concentrations ranging from 10 μM to 0.5 nM) are reacted with 12.5 ng of ENPP-1 (Biovendor, catalog number RD172124100) and 720 μM substrate pNP-TMP at 37° C. for 60 minutes. All assays include a DMSO control without ENPP-1 inhibitor that gives maximum absorbance.
After 60 minutes of this reaction, the […] is measured using an Epoch™ Microplate Spectrophotometer (BioTek Instruments Inc.). Inhibition (%) is calculated using the following formula: Sample OD405 nm/Max OD405 nm×100%. % residual ENPP-1 enzyme activity versus IC50 values for ENPP-1 inhibitor concentrations were determined by fitting inhibition curves using the 4-parameter method of GraphPad Prism® software [GraphPad version 9.3.1 for Windows, GraphPad Software, La Jolla California USA, www.graphpad.com].

Regarding `COc1ccc2c(c1)c1ncccc1n2Cc1ccc(S(=N)(=O)Cc2ccccc2)cc1` (stereo not drawn) [Compound 12, benzyl(imino)(4-((8-methoxy-5H-pyrido[3,2-b]indol-5-yl)methyl)phenyl)-l6-sulfanone], the half-inhibitory concentration (IC50) against ENPP-1 [1] and on ENPP-1 [2] was less than 1000 nM each time.
Regarding `COc1ccc2c(c1)c1ncccc1n2Cc1ccc(P(=O)(O)O)cc1` [Compound 13, (4-((8-methoxy-5H-pyrido[3,2-b]indol-5-yl)methyl)phenyl)phosphonic acid], the 50% inhibitory concentration (IC50) against ENPP-1 [1] and against ENPP-1 [2] was less than 1000 nM throughout.
For `COc1ccc2c(c1)c1ncccc1n2Cc1ccc(CP(=O)(O)O)cc1` [Compound 14, (4-((8-methoxy-5H-pyrido[3,2-b]indol-5-yl)methyl)benzyl)phosphonic acid], the IC50 on ENPP-1 [1] and at ENPP-1 [2] was less than 1000 nM each time.
Take `COc1ccc2c(c1)c1ncccc1n2Cc1ccc(S(N)(=O)=O)cc1F` [Compound 15, 3-fluoro-4-((8-methoxy-5H-pyrido[3,2-b]indol-5-yl)methyl)benzenesulfonamide]: the IC50 against ENPP-1 [1] and on ENPP-1 [2] was less than 1000 nM each time.
`COc1ccc2c(c1)c1ncccc1n2Cc1ccc(S(N)(=O)=O)cc1Cl` [Compound 16, 3-chloro-4-((8-methoxy-5H-pyrido[3,2-b]indol-5-yl)methyl)benzenesulfonamide]: the half-maximal inhibitory concentration (IC50) at ENPP-1 [1] and against ENPP-1 [2] was less than 1000 nM each time.
For the compound `COc1ccc2c(c1)c1ncccc1n2Cc1ccc(S(C)(=N)=O)cc1F` (stereo not drawn) [Compound 17, (3-fluoro-4-((8-methoxy-5H-pyrido[3,2-b]indol-5-yl)methyl)phenyl)(imino)(methyl)-l6-sulfanone], the IC50 against ENPP-1 [1] and on ENPP-1 [2] was less than 1000 nM in each case.
As to `COc1ccc2c(c1)c1ncccc1n2Cc1ccc(S(C)(=N)=O)cc1C` (stereo not drawn) [Compound 18, imino (4-((8-methoxy-5H-pyrido[3,2-b]indol-5-yl)methyl)-3-methylphenyl)(methyl)-l6-sulfanone], the IC50 on ENPP-1 [1] and against ENPP-1 [2] was less than 1000 nM each time.
On to `COc1ccc2c(c1)c1ncccc1n2Cc1ccc(S(C)(=N)=O)cc1OC` (stereo not drawn) [Compound 19, imino (3-methoxy-4-((8-methoxy-5H-pyrido[3,2-b]indol-5-yl)methyl)phenyl)(methyl)-l6-sulfanone], for which the half-maximal inhibitory concentration (IC50) on ENPP-1 [1] and against ENPP-1 [2] was less than 1000 nM each time.
On to `COc1ccc2c(c1)c1ncccc1n2Cc1ccc(S(C)(=N)=O)c(F)c1` (stereo not drawn) [Compound 20, (2-fluoro-4-((8-methoxy-5H-pyrido[3,2-b]indol-5-yl)methyl)phenyl)(imino)(methyl)-l6-sulfanone], for which the half-maximal inhibitory concentration (IC50) against ENPP-1 [1] and at ENPP-1 [2] was less than 1000 nM throughout.
As for `NS(=O)(=O)c1ccc(Cn2c3ccc(Cl)cc3c3ncccc32)cc1` [Compound 21, 4-((8-chloro-5H-pyrido[3,2-b]indol-5-yl)methyl)benzenesulfonamide], the IC50 at ENPP-1 [1] and at ENPP-1 [2] was less than 1000 nM each time.
In the case of `NS(=O)(=O)c1ccc(Cn2c3ccc(OC(F)(F)F)cc3c3ncccc32)cc1` [Compound 22, 4-((8-(trifluoromethoxy)-5H-pyrido[3,2-b]indol-5-yl)methyl)benzenesulfonamide], the IC50 on ENPP-1 [1] was 1000 to 10000 nM; on ENPP-1 [2], less than 1000 nM.
For `Cc1ccc2c(c1)c1ncccc1n2Cc1ccc(S(C)(=N)=O)cc1` (stereo not drawn) [Compound 23, imino(methyl) (4-((8-methyl-5H-pyrido[3,2-b]indol-5-yl)methyl)phenyl)-l6-sulfanone], in that order: less than 1000 nM and less than 1000 nM.
For the compound `CCOc1ccc2c(c1)c1ncccc1n2Cc1ccc(S(C)(=N)=O)cc1` (stereo not drawn) [Compound 24, (4-((8-ethoxy-5H-pyrido[3,2-b]indol-5-yl)methyl)phenyl)(imino)(methyl)-l6-sulfanone], the results for the concentration for half-maximal inhibition (IC50) at ENPP-1 [1] and against ENPP-1 [2] were less than 1000 nM and 1000 to 10000 nM, respectively.
The like results for `COc1cc(F)c2c(c1)c1ncccc1n2Cc1ccc(S(N)(=O)=O)cc1` [Compound 25, 4-((6-fluoro-8-methoxy-5H-pyrido[3,2-b]indol-5-yl)methyl)benzenesulfonamide] were, in that order, 1000 to 10000 nM and less than 1000 nM.
For `COc1cc(C)c2c(c1)c1ncccc1n2Cc1ccc(S(N)(=O)=O)cc1` [Compound 26, 4-((8-methoxy-6-methyl-5H-pyrido[3,2-b]indol-5-yl)methyl)benzenesulfonamide], in that order: less than 1000 nM and less than 1000 nM.
Take `COc1cc(Cl)c2c(c1)c1ncccc1n2Cc1ccc(S(N)(=O)=O)cc1` [Compound 27, 4-((6-chloro-8-methoxy-5H-pyrido[3,2-b]indol-5-yl)methyl)benzenesulfonamide]: the half-maximal inhibitory concentration (IC50) was 1000 to 10000 nM against ENPP-1 [1] and less than 1000 nM against ENPP-1 [2].
For `COc1cc2c3ncccc3n(Cc3ccc(S(N)(=O)=O)cc3)c2cc1OC` [Compound 28, 4-((7,8-dimethoxy-5H-pyrido[3,2-b]indol-5-yl)methyl)benzenesulfonamide], in that order: less than 1000 nM and less than 1000 nM.
Turning to `COc1cc2c3ncccc3n(Cc3ccc(S(N)(=O)=O)cc3)c2cc1F` [Compound 29, 4-((7-fluoro-8-methoxy-5H-pyrido[3,2-b]indol-5-yl)methyl)benzenesulfonamide], the concentration for half-maximal inhibition (IC50) at ENPP-1 [1] and on ENPP-1 [2] was less than 1000 nM throughout.
Regarding `COc1cc2c3ncccc3n(Cc3ccc(S(C)(=N)=O)cc3F)c2cc1F` (stereo not drawn) [Compound 31, (3-fluoro-4-((7-fluoro-8-methoxy-5H-pyrido[3,2-b]indol-5-yl)methyl)phenyl)(imino)(methyl)-l6-sulfanone], the IC50 against ENPP-1 [1] and on ENPP-1 [2] was less than 1000 nM each time.
As to `COc1cc2c(cc1F)c1ncccc1n2Cc1ccc(S(C)(=N)=O)cc1` (stereo not drawn) [Compound 32, (4-((8-fluoro-7-methoxy-5H-pyrido[3,2-b]indol-5-yl)methyl)phenyl)(imino)(methyl)-l6-sulfanone], the IC50 against ENPP-1 [1] and at ENPP-1 [2] was less than 1000 nM in each case.
Turning to `COc1cnc2c(c1)c1c(n2Cc2ccc(S(N)(=O)=O)cc2)CNCC1` [Compound 34, 4-((3-methoxy-5,6,7,8-tetrahydro-9H-pyrrolo[2,3-b:5,4-c′]dipyridin-9-yl)methyl)benzene sulfonamide], the IC50 against ENPP-1 [1] and on ENPP-1 [2] was more than 10000 nM throughout.

The IC50 is the concentration that inhibits the measured activity by half.
